Common to all, as to assay: NCI anticancer screen, dose series, 48 h
In assay [1] the test system is CCRF-CEM leukemia.
Assay [2] deals with SF-268 CNS.
For assay [3], the system named is SF-539 CNS.
In assay [4] the test system is NCI-H23 lung.
For assay [5], the system named is NCI-H460 lung.
In assay [6] the test system is MALME-3M melanoma.
The subject of assay [7] is NCI-H226 lung.
In assay [8] the test system is HCC-2998 colon.
Assay [9] concerns LOX IMVI melanoma.
The test system of assay [10] is A498 renal.

Consider ten compounds from PubChem BioAssay (NCI).

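Each compound was tested at five concentrations against cells in 96-well plates for 48 hours. The concentration for 50% growth inhibition is given as GI50. Definition used: TGI = concentration required for complete inhibition of growth.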

As to `COc1ccc(/C=C2\CCCC3=C2NC(C)=NC3c2ccc(OC)c(OC)c2)cc1OC` (configuration not stated), the GI50 in assay [1] was 2.75 µM; in assay [2], 21 µM; in assay [3], 27.5 µM; in assay [4], 28.6 µM; in [5], 47.7 µM; in assay [6], 22.2 µM. The GI50 is 12.2 µM in [7], over 100 µM in assay [8], 51.1 µM in assay [9] and 16.4 µM in [10]. Also, the TGI in assay [1], in assay [2], in assay [3], in assay [4], in assay [5] and in assay [6] was over 100 µM each time. Also, the TGI is 99.8 µM in [7], over 100 µM in assay [8], over 100 µM in assay [9] and over 100 µM in assay [10].
Turning to `CCOC(=O)N1C2C=C(C)C(C3C(C)C(=O)N31)N(C(=O)c1ccccc1)O2` (configuration not stated), the TGI in [1], in assay [2], in assay [3], in [4], in [5] and in assay [6] was over 100 µM each time. The TGI in [7], in assay [8], in assay [9] and in [10] was over 100 µM in each case.
As for `Fc1ccc(Nc2nccc(-c3c(-c4ccc(C(F)(F)F)cc4)nn4ncccc34)n2)cc1F`, the GI50 in assay [1], in assay [2], in assay [3], in assay [4], in assay [5] and in assay [6] was over 25 µM throughout. Also, the GI50 in assay [7], in assay [8], in assay [9] and in assay [10] was over 25 µM in each case. Moreover, the TGI in assay [1], in assay [2], in [3], in assay [4], in [5] and in [6] was over 25 µM throughout. The TGI in assay [7], in assay [8], in [9] and in assay [10] was over 25 µM each time.
In the case of `CC(=O)OC1C2(CC3N4C(=O)C5(CO)SSC4(CC31O)C(=O)N5C)OC(C)C(C)(C)C2=O` (configuration not stated), the TGI in [1] worked out at 0.175 µM; in assay [2], 2.95 µM; in [3], 0.215 µM; in [4], 0.0932 µM; in assay [5], 0.217 µM; in assay [7], 0.0553 µM. Besides, the TGI is 0.0538 µM in [8], under 0.0121 µM in assay [9] and 0.0717 µM in assay [10]. Besides, the GI50 in assay [2] was 0.896 µM; in [3], 0.139 µM; in assay [4] it was under 0.0371 µM; in [5] it was under 0.0485 µM; in assay [6], 0.154 µM; in [7], 0.0142 µM. In addition, the figures for the GI50 in assay [8], in [9] and in assay [10] were under 0.018 µM, under 0.01 µM and 0.0352 µM, respectively.
For `COc1ccc(COCC(Cn2ccnc2)OCc2ccc(C(=O)O)cc2)cc1` (configuration not stated), the TGI in assay [1], in assay [2], in [3], in assay [4], in assay [5] and in assay [6] was over 100 µM each time. Also, the TGI in [7], in assay [8], in assay [9] and in [10] was over 100 µM each time.
`COc1ccc2cc3n(c2c1)CCc1cc(OC)c(OC)cc1-3`: the TGI in assay [1], in [2], in assay [3], in [4], in assay [5] and in assay [7] was over 100 µM each time. The TGI in assay [8], in assay [9] and in assay [10] was over 100 µM throughout.
On to `O=C(O)c1c[nH]cc1C(=O)O`, for which the TGI in [1], in [2], in assay [3], in assay [4], in assay [5] and in [6] was over 100 µM in each case. The TGI in assay [7], in assay [9] and in [10] was over 100 µM throughout.
Consider `O=C(Nc1cc(Cl)c(Cl)cc1Cl)C(=O)C(C(=O)c1ccc(Cl)c(Cl)c1)C1OC(=O)c2ccccc21` (configuration not stated), for which the TGI in assay [1] was determined as 49.5 µM; in assay [2] it was 41.8 µM; in assay [3], 7.89 µM; in [5] it was 10.8 µM; in [7] it was 22.7 µM; in [8], 33.6 µM. Moreover, the results for the TGI in assay [9] and in assay [10] were 35 µM and 41.9 µM, respectively.
On to `O=[N+]([O-])c1ccc(CS(=O)Cc2ccccc2)cc1` (configuration not stated), for which the TGI in assay [1], in assay [2], in assay [3], in [4], in [5] and in assay [6] was over 100 µM in each case. Further, the TGI in [7], in assay [9] and in [10] was over 100 µM in each case.
For `CN(C)CCNC(=O)c1ccc(Cl)c2c(Nc3ccc(S(N)(=O)=O)cc3)c3ccccc3nc12`, the TGI in assay [2] is 13.8 µM; in assay [3] it was 4.79 µM; in assay [4], 11.6 µM; in assay [5], 7.28 µM; in [6] it was 12.5 µM; in assay [7] it was 4.56 µM. Further, the results for the TGI in assay [8], in [9] and in assay [10] were 14.8 µM, 2.35 µM and 13.4 µM, respectively.
